row,Compound,melting point [°C]
1,Cc1ccc2c(c1)C(c1ccccc1)CC(N1CCN(C3CC(c4ccccc4)c4cc(C)ccc4O3)CC1)O2 (centres undefined),241
2,NC(=S)N1CCN(c2nc3cccccc-3n2)CC1,245 to 247
3,COCCOCOc1c(C(C)(C)C)cc(C2=NC(=S)N=N2)cc1C(C)(C)C,187
4,O=C(c1ccccc1)C(Cl)Cn1cnc(Cl)c1 (centres undefined),106 to 110
5,CC(C)(CF)C(O)C(c1ccc(Cl)cc1Cl)n1cncn1 (centres undefined),98 to 100
6,O=C1CSCN1c1cc(Cl)cc(Cl)c1,87 to 92
7,COc1cc2nc(S(=O)Cc3nccc(N4CCOCC4)c3F)[nH]c2cc1OC (centres undefined),213 to 215
8,COC(COc1ccc(C(=O)C(C)(C)O)cc1)OC,52 to 53
9,C=CCNC(=O)C1CCc2ccccc2O1 (centres undefined),76 to 77
10,CCN1CC(=O)N(c2ccc(Cl)cc2Cl)C1=S,144 to 146
11,CC1=C(c2ccc(Cl)cc2)n2ncc(C#N)c2N(C(=O)CCl)C1,138 to 140
12,CC(=O)c1ccc(SCCCc2ccccc2)cc1,76 to 78
13,COCCN1CCc2cc(Nc3ncc(Cl)c(Nc4ccccc4NS(C)(=O)=O)n3)c(OC)cc2CC1,107 to 112
14,COCc1nc2c(NCc3c(C)cccc3C)cc(C(=O)O)cc2n1C,269 to 272
15,O=C1NC(C(=O)NCCO[N+](=O)[O-])C(c2cccs2)O1 (centres undefined),101 to 103
16,COC(CC(=O)O)C(O)=Nc1cc(Cl)cc(Cl)c1 (centres undefined),125 to 126
17,CC1Cc2cc3c(cc2C(c2ccc([N+](=O)[O-])cc2)=NN1C(=O)C(C)(C)C)OCO3 (centres undefined),164 to 166
18,COc1ccc(C(=O)Oc2ccc(C(=O)O)c(O)c2)cc1C12CC3CC(CC(C3)C1)C2,243 to 244
19,COc1ccc(OC)c(NC(=O)c2cc(OC)ccc2OC)c1,121 to 123

# Second part, the compound after the results:
row,melting point [°C],Compound
1,170 to 172,O=C(O)CCCOc1ccc(C23CC4CC(CC(C4)C2)C3)cc1
2,144,COc1cc(C(=O)Nc2c(C)cccc2C)nn1C
3,130 to 131,Cc1nnc(-c2ccc3occ(-c4cc(F)ccc4Cl)c3c2)o1
4,194 to 195,CC(C)CC(S)C(=O)NC(Cc1ccc(Br)nc1)C(=O)NC(Cc1ccc(-c2cccs2)nc1)C(=O)O (centres undefined)
5,79 to 85,COc1cccc2c1CC(C(=O)NCCOc1ccc(C(=O)OC(C)(C)C)cc1)N2S(=O)(=O)c1ccc(-c2ccc(F)cc2Cl)cc1 (centres undefined)
6,185,O=C(O)c1ccc(Cl)c2c1OC(F)(F)O2
7,70,O=S1(=O)N(CCCl)c2cccc3c2N1CCC3
8,204 to 207,O=C(O)CN1C(=O)C(=Cc2ccc(OCc3ccccc3)c(OCc3ccccn3)c2)SC1=S
9,66,CC(=O)OC1CSC(Oc2cc(F)ccc2-c2cccnc2)C(OC(C)=O)C1OC(C)=O (centres undefined)
10,104 to 105,CSC(c1ccccc1)S(=O)c1ccccc1 (centres undefined)
11,200 to 201,CCCCc1ccc(Nc2cc(C)nc3ccc(OC)cc23)cc1
12,138 to 139,CCCCCN1N=C(c2ccc3c(c2)N(S(C)(=O)=O)CCO3)CCC1=O
13,162,O=Cc1cc2c3ccccc3ccc2c2sccc12
14,197 to 198,C=CCc1c2nc(C(=O)OC)cc(Cl)c2cc2c(=O)cc(C(=O)OCC)oc12
15,158,c1ccc(C2CCN=C(c3csnn3)N2)cc1 (centres undefined)
16,207,O=C(Nc1ccccc1S(=O)(=O)N1CCCCC1)N[C@@H](Cc1ccc(Nc2nccc3cnccc23)cc1)C(=O)O
17,159,CC(C)(C)c1cc(C(=O)CCl)ccc1Cl
18,197 to 198,CCOc1n[nH]cc1C(=O)NCc1ccc(Cl)cc1Cl
19,258 to 260,O=C1CCC(N2Cc3c(OCC4COc5ccccc5C4)cccc3C2=O)C(=O)N1 (centres undefined)
20,223,Cc1c(C(=O)Nc2ccc(N3CCC(N4CCOCC4)CC3)c(C#N)c2)cnn1-c1ccccc1
